Test results as given in patent US10273221B2, “Microbiocidal heterobicyclic derivatives” (Syngenta Participations AG, priority 2015, dated 2019).

Experiments:
[1] = system: Botryotinia fuckeliana (Botrytis cinerea); experiment: Botryotinia fuckeliana (Botrytis cinerea) / liquid culture (gray mould); assay type: cell-based; conditions: growth inhibition determined photometrically 3-4 days after application, vs untreated control, read-out: disease control
Fusarium culmorum = experiment: microbe, parasite or virus in culture; assay type: cell-based; conditions: 72 h, read-out: disease control
Gaeumannomyces graminis = Gaeumannomyces graminis / liquid culture (take-all of cereals); assay type: cell-based; conditions: growth inhibition determined photometrically 4-5 days after application, vs untreated control, read-out: disease control
[2] = system: Glomerella lagenarium (Colletotrichum lagenarium); experiment: Glomerella lagenarium (Colletotrichum lagenarium) / liquid culture (anthracnose); assay type: cell-based; conditions: Colletotrichum orbiculare, growth inhibition measured photometrically 3-4 days after application, vs untreated control, read-out: disease control
[3] = system: Monographella nivalis (Microdochium nivale); experiment: Monographella nivalis (Microdochium nivale) / liquid culture (foot rot cereals); assay type: cell-based; conditions: 96 h, growth inhibition determined photometrically 4-5 days after application, vs untreated control, read-out: disease control
[4] = system: Magnaporthe grisea (Pyricularia oryzae); experiment: microbe, parasite or virus in culture; assay type: cell-based; conditions: 72 h, read-out: control of Magnaporthe grisea
Pyrenophora teres = Pyrenophora teres / liquid culture (net blotch); assay type: cell-based; conditions: growth inhibition determined photometrically 3-4 days after application, vs untreated control
Sclerotinia sclerotiorum = Sclerotinia sclerotiorum / liquid culture (cottony rot); conditions: 72 h, read-out: control of Sclerotinia sclerotiorum
Experimental: Sclerotinia sclerotiorum/Liquid Culture (Cottony Rot)
Mycelia fragments of a newly grown liquid culture of the fungus are directly mixed into nutrient broth (Vogels broth). After placing a (DMSO) solution of test compound into a microtiter plate (96-well format) the nutrient broth containing the fungal material is added. The test plates are incubated at 24° C. and the inhibition of growth is determined photometrically 3-4 days after application.

[5] = system: Mycosphaerella graminicola (Septoria tritici); experiment: Mycosphaerella graminicola (Septoria tritici) / liquid culture (Septoria blotch); assay type: cell-based; conditions: Zymoseptoria tritici, 96 h, growth inhibition determined photometrically 4-5 days after application, vs untreated control, read-out: disease control

| SMILES | inhibition of growth at 200 ppm [1] [%] | inhibition of growth at 200 ppm (Fusarium culmorum) [%] | inhibition of growth at 200 ppm (Gaeumannomyces graminis) [%] | inhibition of growth at 200 ppm [2] [%] | inhibition of growth at 200 ppm [3] [%] | inhibition of growth at 20 ppm [4] [%] | inhibition of growth at 20 ppm (Pyrenophora teres) [%] | melting point [°C] | inhibition of growth at 20 ppm (Sclerotinia sclerotiorum) [%] | inhibition of growth at 200 ppm [5] [%] |
| --- | --- | --- | --- | --- | --- | --- | --- | --- | --- | --- |
| CC1(C)N=C(n2cnc3c(Br)cccc32)c2cccc(F)c2C1(C)C [E-4] | ≥ 80 | ≥ 80 | ≥ 80 | ≥ 80 | ≥ 80 | ≥ 80 | ≥ 80 | 48 to 49 |  |  |
| CC1(C)N=C(n2cnc3c(F)cccc32)c2cccc(F)c2C1(C)C [E-7] | ≥ 80 | ≥ 80 | ≥ 80 | ≥ 80 | ≥ 80 | ≥ 80 | ≥ 80 |  |  |  |
| Cc1cccc2c1ncn2C1=NC(C)(C)C2(CC2)c2ccccc21 [E-9] | ≥ 80 | ≥ 80 | ≥ 80 | ≥ 80 | ≥ 80 | ≥ 80 | ≥ 80 |  |  |  |
| Cc1cccc2c1ncn2C1=NC(C)(C)C(=O)c2ccccc21 [E-10] | ≥ 80 |  |  | ≥ 80 | ≥ 80 | ≥ 80 | ≥ 80 | 123 to 125 |  |  |
| C=C(C)c1cccc2c1ncn2C1=NC(C)(C)C(C)(C)c2c(F)cccc21 [E-11] | ≥ 80 |  |  | ≥ 80 | ≥ 80 | ≥ 80 | ≥ 80 |  |  |  |
| CC(C)c1cccc2c1ncn2C1=NC(C)(C)C(C)(C)c2c(F)cccc21 [E-12] | ≥ 80 |  |  | ≥ 80 | ≥ 80 | ≥ 80 | ≥ 80 | 113 to 114 |  |  |
| C=Cc1cccc2c1ncn2C1=NC(C)(C)C(C)(C)c2c(F)cccc21 [E-13] | ≥ 80 |  |  | ≥ 80 | ≥ 80 | ≥ 80 | ≥ 80 | 70 to 71 |  |  |
| CCc1cccc2c1ncn2C1=NC(C)(C)C(C)(C)c2c(F)cccc21 [E-14] | ≥ 80 | ≥ 80 | ≥ 80 | ≥ 80 | ≥ 80 | ≥ 80 | ≥ 80 | 87 to 88 |  |  |
| Cc1cccc2c1ncn2C1=NC(C)(C)C(F)(F)c2ccccc21 [E-15] | ≥ 80 | ≥ 80 | ≥ 80 | ≥ 80 | ≥ 80 | ≥ 80 | ≥ 80 |  | ≥ 80 |  |
| CC1(C)N=C(n2cnc3c(Cl)cccc32)c2cccc(F)c2C1(C)C [E-17] | ≥ 80 | ≥ 80 | ≥ 80 | ≥ 80 | ≥ 80 | ≥ 80 | ≥ 80 | 50 to 51 | ≥ 80 |  |
| Cc1ccc2c(ncn2C2=NC(C)(C)C(F)(F)c3c(F)cccc32)c1C [E-19] | ≥ 80 | ≥ 80 | ≥ 80 | ≥ 80 | ≥ 80 | ≥ 80 | ≥ 80 |  | ≥ 80 |  |
| Cc1cccc2c1ncn2C1=NC(C)(C)C(F)(F)c2c(F)cccc21 [E-20] | ≥ 80 | ≥ 80 |  | ≥ 80 | ≥ 80 | ≥ 80 | ≥ 80 |  | ≥ 80 |  |
| Cc1ccc2c(ncn2C2=NC(C)(C)C(F)(F)c3ccccc32)c1C [E-23] | ≥ 80 | ≥ 80 | ≥ 80 | ≥ 80 | ≥ 80 | ≥ 80 | ≥ 80 |  | ≥ 80 |  |
| Cc1ccc2c(ncn2C2=NC(C)(C)C(=O)c3ccccc32)c1C [E-25] | ≥ 80 | ≥ 80 |  | ≥ 80 | ≥ 80 | ≥ 80 | ≥ 80 | 159 to 161 | ≥ 80 |  |
| Cc1cccc2c1C(=O)C(C)(C)N=C2n1cnc2c(C)cccc21 [E-26] | ≥ 80 | ≥ 80 |  | ≥ 80 | ≥ 80 | ≥ 80 | ≥ 80 | 96 to 101 | ≥ 80 |  |
| Cc1cccc2c1C(=O)C(C)(C)N=C2n1cnc2c(C)c(C)ccc21 [E-27] | ≥ 80 | ≥ 80 |  | ≥ 80 | ≥ 80 | ≥ 80 | ≥ 80 | 145 to 149 | ≥ 80 |  |
| Cc1cc2ncn(C3=NC(C)(C)C(C)(C)c4c(F)cccc43)c2cc1C [E-30] | ≥ 80 | ≥ 80 | ≥ 80 | ≥ 80 | ≥ 80 | ≥ 80 |  |  | ≥ 80 | ≥ 80 |
| Cc1c(Cl)ccc2c1ncn2C1=NC(C)(C)C(F)(F)c2ccccc21 [E-33] | ≥ 80 | ≥ 80 | ≥ 80 | ≥ 80 | ≥ 80 | ≥ 80 |  |  | ≥ 80 | ≥ 80 |
| Cc1cccc2c1ncn2C1=NC(C)(C)C(=O)c2cc(Cl)ccc21 [E-34] | ≥ 80 | ≥ 80 |  |  | ≥ 80 | ≥ 80 |  | 129 to 133 |  | ≥ 80 |
| Cc1c(F)ccc2c1ncn2C1=NC(C)(C)C(=O)c2cc(Cl)ccc21 [E-35] | ≥ 80 | ≥ 80 |  |  |  | ≥ 80 |  | 133 to 136 |  | ≥ 80 |
| Cc1ccc2c(ncn2C2=NC(C)(C)C(=O)c3cc(Cl)ccc32)c1C [E-36] | ≥ 80 | ≥ 80 |  |  |  | ≥ 80 |  | 196 to 199 |  | ≥ 80 |
| CC1(C)N=C(n2cnc3c(F)c(F)ccc32)c2cccc(F)c2C1(C)C [E-50] | ≥ 80 | ≥ 80 |  | ≥ 80 | ≥ 80 | ≥ 80 |  | 112 to 114 |  | ≥ 80 |
| Cc1cccc2c1ncn2C1=NCC2(CCCC2)c2ccccc21 [E-53] | ≥ 80 |  |  |  | ≥ 80 | ≥ 80 |  |  |  | ≥ 80 |
| Cc1cccc2c1ncn2C1=NCC2(CCC2)c2ccccc21 [E-54] | ≥ 80 |  |  | ≥ 80 | ≥ 80 | ≥ 80 |  |  |  | ≥ 80 |
| CC1(C)N=C(n2cnc3c4c(ccc32)CCC4)c2ccccc2C1(F)F [E-55] | ≥ 80 | ≥ 80 |  | ≥ 80 | ≥ 80 | ≥ 80 |  |  | ≥ 80 | ≥ 80 |
| Cc1ccc2c(ncn2C2=NC(C)(C)C(F)(F)c3cc(F)ccc32)c1C [E-56] | ≥ 80 | ≥ 80 |  | ≥ 80 | ≥ 80 | ≥ 80 |  |  | ≥ 80 | ≥ 80 |
| Cc1ccc2c(ncn2C2=NC(C)(C)Cc3cc(F)ccc32)c1C [E-57] | ≥ 80 | ≥ 80 |  | ≥ 80 | ≥ 80 | ≥ 80 |  | 143 to 145 | ≥ 80 | ≥ 80 |
| Cc1ccc2c(ncn2C2=NC(C)(C)C(C)(C)c3c(F)cccc32)c1F [E-60] | ≥ 80 | ≥ 80 | ≥ 80 | ≥ 80 | ≥ 80 | ≥ 80 |  |  |  | ≥ 80 |
